Measured values published in paper PMC10397409, “The action of physiological and synthetic steroids on the calcium channel CatSper in human sperm” (Frontiers in Cell and Developmental Biology, 2023).

System: human sperm
Experiment: Sperm penetration in viscous media (modified Kremer test)
Type: cell-based
Conditions: steroids 10 µM, P4 5 µM, 1 h, 1% methylcellulose
Description: The ability of sperm to penetrate in viscous media similar in viscosity to that found in the female reproductive tract was assessed using the modified Kremer test, as previously described ([Rahban et al., 2021]). Briefly, swim-up recovered and capacitated sperm cells at 3 x 10^6/mL were incubated in the absence (DMSO) or presence of steroids (10 µM), or P4 (5 µM) as a positive control for 1 h at 37°C. A glass capillary (0.2 × 4.0 × 50 mm, CM scientific, UK) was filled with 1% (w/v) methylcellulose (MC, 4000 centipoises cP) prepared with HTF media supplemented with 3 mg/mL HSA, respective compounds (10 µM), P4 (5 µM), or DMSO. The glass capillary tube was then sealed on one end with wax (Vitrex, UK) and added to the sperm cells on the open end. Sperm penetration was assessed after 1 h of incubation at 37°C by counting sperm at 1 cm using a microscope with a ×10 objective.

With `C[C@]12Cc3c[nH]nc3C[C@@H]1CC[C@@H]1[C@@H]2CC[C@@]2(C)[C@H]1CC[C@]2(C)O` [Stanozolol] the “number of sperm penetrating viscous medium at 1 cm” value was “significant increase in cell number”.
